In US20230167073A1 (Teijin Pharma Limited, priority 2020, published 2023):

biological target: T1, Human TRPC6 (Homo sapiens, UniProt Q9Y210); experiment: Evaluation of TRPC6 channel inhibitory activity (2), HEK293 cells with stably introduced human TRPC6, OAG stimulation, FLIPR tetra (Compound Nos. 1293 to 1405); assay type: cell-based; settings: HEK293 cells with stably introduced human TRPC6, OAG 50 μM/0.5% DMSO, read-out: Inhibitory activity (pIC50 class) (converted)
T1 construct: expressed in transfected cells
T1 sequence (Q9Y210 1-931): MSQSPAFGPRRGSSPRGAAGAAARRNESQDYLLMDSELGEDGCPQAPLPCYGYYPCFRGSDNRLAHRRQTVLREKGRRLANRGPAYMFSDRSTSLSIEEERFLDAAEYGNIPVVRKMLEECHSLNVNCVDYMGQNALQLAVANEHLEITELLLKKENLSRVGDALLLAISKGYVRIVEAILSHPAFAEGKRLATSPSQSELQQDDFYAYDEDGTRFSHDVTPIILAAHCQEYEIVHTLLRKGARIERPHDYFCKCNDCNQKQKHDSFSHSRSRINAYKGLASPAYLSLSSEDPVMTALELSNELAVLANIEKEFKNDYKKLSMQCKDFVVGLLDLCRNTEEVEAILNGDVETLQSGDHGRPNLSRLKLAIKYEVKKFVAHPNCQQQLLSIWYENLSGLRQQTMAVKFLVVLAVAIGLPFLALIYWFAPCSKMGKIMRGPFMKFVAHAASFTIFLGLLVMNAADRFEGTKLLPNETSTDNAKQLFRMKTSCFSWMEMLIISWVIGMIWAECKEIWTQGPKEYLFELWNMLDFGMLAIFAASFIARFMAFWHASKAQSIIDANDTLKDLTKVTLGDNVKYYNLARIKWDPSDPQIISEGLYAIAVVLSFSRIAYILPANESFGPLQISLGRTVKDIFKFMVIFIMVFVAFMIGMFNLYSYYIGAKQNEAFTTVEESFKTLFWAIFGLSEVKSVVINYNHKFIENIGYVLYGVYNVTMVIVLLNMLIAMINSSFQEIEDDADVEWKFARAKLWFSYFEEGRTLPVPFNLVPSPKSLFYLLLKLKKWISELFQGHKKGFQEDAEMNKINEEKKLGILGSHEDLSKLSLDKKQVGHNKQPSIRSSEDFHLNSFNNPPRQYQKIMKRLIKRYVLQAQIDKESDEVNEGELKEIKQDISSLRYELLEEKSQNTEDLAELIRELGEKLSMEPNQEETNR
How it was run: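 Calcium-dye-loaded HEK293 cells stably expressing human TRPC6 were pretreated with compound for 25 min, then stimulated with 50 μM OAG (0.5% DMSO) in Ca ringer buffer pH 7.2 with 2 mM CaCl2. Background-subtracted FLIPR calcium peaks were normalized to OAG (100%) and buffer (0%); pIC50 came from four-parameter logistic fit, binned as +/++/+++.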

`Cn1nc(C2CCOCC2)cc1Oc1cc(C#N)ccc1-c1ccc(C(F)(F)CN)cn1` [compound 1400, 4-[5-(2-amino-1,1-difluoroethyl)pyridin-2-yl]-3-[2-methyl-5-(oxan-4-yl)pyrazol-3-yl]oxybenzonitrile] and `Cc1nc(Oc2cc(C#N)ccc2-c2ncc([C@H](F)CN)cn2)cc(N2CCOCC2)n1` [compound 1403, 4-[5-[(1S)-2-amino-1-fluoroethyl]pyrimidin-2-yl]-3-(2-methyl-6-morpholin-4-ylpyrimidin-4-yl)oxybenzonitrile] fall in the same range of IC50: 0.01 to 1 µM for the first, 0.01 to 1 µM for the second.

First: Cn1nc(-c2ccccn2)cc1Oc1cc(Cl)ccc1-c1ccc([C@@H](O)CN)cn1 [compound 1401, (1R)-2-amino-1-[6-[4-chloro-2-(2-methyl-5-pyridin-2-ylpyrazol-3-yl)oxyphenyl]pyridin-3-yl]ethanol]
Second: Cn1nc(-c2ccccn2)cc1Oc1cc(Cl)cc(F)c1-c1ccc(CN)cn1 [compound 1404, [6-[4-chloro-2-fluoro-6-(2-methyl-5-pyridin-2-ylpyrazol-3-yl)oxyphenyl]pyridin-3-yl]methanamine]
The IC50 of the first is higher: 0.01 to 1 µM for the first, < 0.01 µM for the second.

In the case of `Cc1nc(Oc2cc(Cl)ccc2-c2ncc(CCN)cn2)c(C)c(N2CCOCC2)n1` [compound 1405, 2-[2-[4-chloro-2-(2,5-dimethyl-6-morpholin-4-ylpyrimidin-4-yl)oxyphenyl]pyrimidin-5-yl]ethanamine], the IC50 is reported as > 1 µM.
